Tested on: phytase (extracellular phytase from P. acidilactici SMVDUDB2)
Conditions: 0.1-1.8 mM sodium phytate, 0.2 M sodium acetate pH 5.5

Km: 385 µM
Structure (SMILES): O=P(O)(O)O[C@H]1[C@H](OP(=O)(O)O)[C@@H](OP(=O)(O)O)[C@H](OP(=O)(O)O)[C@@H](OP(=O)(O)O)[C@H]1OP(=O)(O)O [sodium phytate]

— paper PMC7002416, “Probiotic properties of a phytase producing Pediococcus acidilactici strain SMVDUDB2 isolated from traditional fermented cheese product, Kalarei” (Scientific Reports, 2020)
